# Values joined by “and” are separate entries in the source; they are usually repeats but may differ in a detail not shown here. Equal values may be shown once. Read-outs that look alike come from different tables or passages of the source.
# How the values were obtained:
# [1] = system: ZC1/HGK, ZC2/TNIK, ZC3/MINK; experiment: KiNativ kinase panel; assay type: cell-based, human; conditions: 1 μM, MCF-7 Cells, Lys2
# [2] = system: MSK1 domain1, MSK2 domain1; experiment: KiNativ kinase panel; assay type: cell-based, human; conditions: 1 μM, MCF-7 Cells, ATP Loop
# NDR1, NDR2 = experiment: KiNativ kinase panel; assay type: cell-based, human; conditions: 1 μM; MCF-7 Cells; Activation Loop; LSDFGLCTGLKK
# MST3, MST4, YSK1 = experiment: KiNativ kinase panel; assay type: cell-based, human; conditions: 1 μM, MCF-7 Cells, Activation Loop
# PKCa, PKCg = experiment: KiNativ kinase panel; assay type: cell-based, human; conditions: 1 μM, MCF-7 Cells, Other
# p38a = target: T1, p38a (Homo sapiens, UniProt Q16539); experiment: KiNativ kinase panel; assay type: cell-based; conditions: 1 μM, MCF-7 Cells
# T1 construct: purchased ActivX Biosciences (KiNativ)
# JAK1_Domain2 domain2 = target: T2, JAK1_Domain2 domain2 (Homo sapiens, UniProt P23458); experiment: KiNativ kinase panel; assay type: cell-based; conditions: 1 μM, MCF-7 Cells
# T2 construct: endogenous in cells; host or cells: MCF7
# TAO1, TAO3 = experiment: KiNativ kinase panel; assay type: cell-based, human; conditions: 1 μM, MCF-7 Cells, Lys2
# PKR = target: T3, PKR (Homo sapiens, UniProt P19525); experiment: KiNativ kinase panel; assay type: cell-based; conditions: 1 μM, MCF-7 Cells
# T3 construct: MCF7 cells were exposed to; endogenous in cells; host or cells: MCF7
# ULK1 = target: T4, ULK1 (Homo sapiens, UniProt O75385); experiment: KiNativ kinase panel; assay type: cell-based; conditions: 1 μM; MCF-7 Cells; Lys2; DLKPQNILLSNPAGR
# T4 construct: Briefly, MCF7 cells were exposed to; endogenous in cells; host or cells: MCF7
# MAP2K7 = target: T5, MAP2K7 (Homo sapiens, UniProt O14733); experiment: KiNativ kinase panel; assay type: cell-based; conditions: 1 μM; MCF-7 Cells; Lys2; DVKPSNILLDER
# T5 construct: MCF7 cells were exposed to; endogenous in cells; host or cells: MCF7
# tumor p4EBP1 = experiment: Tumor PD after a single dose in the MCF-7 CDX model; assay type: in vivo, mice; conditions: for effect on tumor p4EBP1 levels: MCF-7 CDX, single dose (38, 40 ip; everolimus 5 mg/kg oral); for MCF-7 tumor PD: dose proportional duration of >80% p4EBP1 inhibition: single ip dose
# Wnk1, Wnk2 = experiment: KiNativ kinase panel; assay type: cell-based, human; conditions: 1 μM; MCF-7 Cells; ATP Loop; GSFKTVYK
# CK1g3 = target: T6, CK1g3 (Homo sapiens, UniProt Q9Y6M4); experiment: KiNativ kinase panel; assay type: cell-based; conditions: 1 μM, MCF-7 Cells, Lys2
# T6 construct: MCF7 cells were exposed to; endogenous in cells; host or cells: MCF7
# [3] = Mouse pharmacokinetics, IP administration; assay type: in vivo; conditions: male Balb/c mice, 1 mg/kg IP, mean ± SD, n = 3
# Experimental: Mouse Pharmacokinetic Studies. Male Balb/C mice were non-fasted on the day of dosing. PK […]
# plasma were conducted using an AB Sciex Triple Quad 6500+ mass spectrometer coupled with a Waters UPLC system. Supernatants were collected by centrifugation after protein precipitation using MeCN containing internal standard (IS, D4-AEA). Supernatant was injected for LC- […]
# μm) column. The LC mobile phase (A: 5 mM NH 4OAc in H 2O; B: MeCN/MeOH 50/50)
# EphB2 = target: T7, EphB2 (Homo sapiens, UniProt P29323); experiment: KiNativ kinase panel; assay type: cell-based; conditions: 1 μM; MCF-7 Cells; Activation Loop; FLEDDTSDPTYTSALGGKIPIR
# T7 construct: MCF7 cells were exposed to; endogenous in cells; host or cells: MCF7
# p38d, p38g = experiment: KiNativ kinase panel; assay type: cell-based, human; conditions: 1 μM, MCF-7 Cells, Lys2
# IKKe, TBK1 = experiment: KiNativ kinase panel; assay type: cell-based, human; conditions: 1 μM; MCF-7 Cells; Lys2; DIKPGNIMR
# JAK1 domain1 = target: T8, JAK1 domain1 (Homo sapiens, UniProt P23458); experiment: KiNativ kinase panel; assay type: cell-based; conditions: 1 μM; MCF-7 Cells; Activation Loop; QLASALSYLEDKDLVHGNVCTKNLLLAR
# T8 construct: MCF7 cells were exposed to; endogenous in cells; host or cells: MCF7
# MLK3 = target: T9, MLK3 (Homo sapiens, UniProt Q16584); experiment: KiNativ kinase panel; assay type: cell-based; conditions: 1 μM; MCF-7 Cells; Lys2; DLKSNNILLLQPIESDDMEHK
# T9 construct: purchased ActivX Biosciences (KiNativ)
# FYN, SRC, YES = experiment: KiNativ kinase panel; assay type: cell-based, human; conditions: 1 μM, MCF-7 Cells, Activation Loop
# MET = target: T10, MET (Homo sapiens, UniProt P08581); experiment: KiNativ kinase panel; assay type: cell-based; conditions: 1 μM; MCF-7 Cells; Activation Loop; TGAKLPVK
# T10 construct: purchased ActivX Biosciences (KiNativ)
# ABL, ARG = experiment: KiNativ kinase panel; assay type: cell-based, human; conditions: 1 μM, MCF-7 Cells
# NEK6, NEK7 = experiment: KiNativ kinase panel; assay type: cell-based, human; conditions: 1 μM, MCF-7 Cells, Lys2
# CDK11, CDK8 = experiment: KiNativ kinase panel; assay type: cell-based, human; conditions: 1 μM, MCF-7 Cells, Lys2
# KSR1, KSR2 = experiment: KiNativ kinase panel; assay type: cell-based, human; conditions: 1 μM, MCF-7 Cells, Activation Loop
# [4] = Activation Loop, IGDFGLTKAIETDKEYYTVK
# [5] = Lys1, YDPEGDNTGEQVAVKSLKPESGGNHIADLKK
# [6] = Activation Loop, IGDFGLVTSLKNDGKR
# T3 sequence (P19525 whole entry): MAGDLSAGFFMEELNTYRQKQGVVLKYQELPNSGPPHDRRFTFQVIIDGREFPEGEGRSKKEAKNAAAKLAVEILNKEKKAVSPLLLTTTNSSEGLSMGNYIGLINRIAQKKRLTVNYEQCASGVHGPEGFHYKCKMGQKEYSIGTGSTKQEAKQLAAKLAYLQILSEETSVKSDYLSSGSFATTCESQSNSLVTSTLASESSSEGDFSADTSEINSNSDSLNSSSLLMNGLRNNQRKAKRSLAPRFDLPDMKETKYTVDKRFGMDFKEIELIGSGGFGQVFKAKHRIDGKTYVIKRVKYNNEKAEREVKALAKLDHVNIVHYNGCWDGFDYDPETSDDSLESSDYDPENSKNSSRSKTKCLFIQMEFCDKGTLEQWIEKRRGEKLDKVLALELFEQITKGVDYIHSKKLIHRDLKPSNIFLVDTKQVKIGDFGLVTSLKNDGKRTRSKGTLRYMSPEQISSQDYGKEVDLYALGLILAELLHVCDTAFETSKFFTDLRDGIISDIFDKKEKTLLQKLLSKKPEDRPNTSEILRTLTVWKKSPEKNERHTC
# T1 sequence (Q16539 whole entry): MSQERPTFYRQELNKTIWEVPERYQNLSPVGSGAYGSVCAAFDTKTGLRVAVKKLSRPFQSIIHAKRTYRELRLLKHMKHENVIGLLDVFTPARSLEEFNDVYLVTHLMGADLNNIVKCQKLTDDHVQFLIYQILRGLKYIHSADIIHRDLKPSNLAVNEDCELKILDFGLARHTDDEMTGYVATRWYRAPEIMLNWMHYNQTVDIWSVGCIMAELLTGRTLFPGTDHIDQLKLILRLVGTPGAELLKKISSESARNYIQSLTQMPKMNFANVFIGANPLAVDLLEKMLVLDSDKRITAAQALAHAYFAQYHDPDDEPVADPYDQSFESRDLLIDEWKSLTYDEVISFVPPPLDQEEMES
# T2 sequence (P23458 whole entry, the tested form may be a part): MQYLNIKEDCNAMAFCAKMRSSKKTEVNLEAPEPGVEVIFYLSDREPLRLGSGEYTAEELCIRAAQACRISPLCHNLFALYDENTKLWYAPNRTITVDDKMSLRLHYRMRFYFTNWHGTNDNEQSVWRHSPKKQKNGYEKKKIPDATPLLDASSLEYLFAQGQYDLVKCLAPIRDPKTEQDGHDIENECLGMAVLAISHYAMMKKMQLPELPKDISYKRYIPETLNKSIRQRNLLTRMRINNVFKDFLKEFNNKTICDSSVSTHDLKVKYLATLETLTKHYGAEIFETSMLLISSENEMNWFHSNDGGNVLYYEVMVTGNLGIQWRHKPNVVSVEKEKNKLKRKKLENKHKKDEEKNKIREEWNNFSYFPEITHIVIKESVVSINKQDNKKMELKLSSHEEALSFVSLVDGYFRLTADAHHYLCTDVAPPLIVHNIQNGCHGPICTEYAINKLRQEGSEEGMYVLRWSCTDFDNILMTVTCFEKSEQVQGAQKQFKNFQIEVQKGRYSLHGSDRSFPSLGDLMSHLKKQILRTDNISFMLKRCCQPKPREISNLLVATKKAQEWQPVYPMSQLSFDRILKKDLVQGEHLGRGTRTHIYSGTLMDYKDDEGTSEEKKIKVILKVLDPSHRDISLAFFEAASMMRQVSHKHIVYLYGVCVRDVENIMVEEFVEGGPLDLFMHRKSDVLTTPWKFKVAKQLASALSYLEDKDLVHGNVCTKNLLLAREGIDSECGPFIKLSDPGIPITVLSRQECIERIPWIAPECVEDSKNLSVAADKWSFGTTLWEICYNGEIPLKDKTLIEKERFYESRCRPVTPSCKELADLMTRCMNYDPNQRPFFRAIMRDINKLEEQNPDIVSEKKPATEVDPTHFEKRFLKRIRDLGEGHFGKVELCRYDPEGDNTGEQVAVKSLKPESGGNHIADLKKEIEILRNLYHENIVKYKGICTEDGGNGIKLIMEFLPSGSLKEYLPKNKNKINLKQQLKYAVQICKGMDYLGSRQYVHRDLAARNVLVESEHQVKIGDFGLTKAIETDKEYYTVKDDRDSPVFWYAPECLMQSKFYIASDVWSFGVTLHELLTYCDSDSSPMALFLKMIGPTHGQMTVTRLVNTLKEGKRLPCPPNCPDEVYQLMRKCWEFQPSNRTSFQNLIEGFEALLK
# T6 sequence (Q9Y6M4 whole entry): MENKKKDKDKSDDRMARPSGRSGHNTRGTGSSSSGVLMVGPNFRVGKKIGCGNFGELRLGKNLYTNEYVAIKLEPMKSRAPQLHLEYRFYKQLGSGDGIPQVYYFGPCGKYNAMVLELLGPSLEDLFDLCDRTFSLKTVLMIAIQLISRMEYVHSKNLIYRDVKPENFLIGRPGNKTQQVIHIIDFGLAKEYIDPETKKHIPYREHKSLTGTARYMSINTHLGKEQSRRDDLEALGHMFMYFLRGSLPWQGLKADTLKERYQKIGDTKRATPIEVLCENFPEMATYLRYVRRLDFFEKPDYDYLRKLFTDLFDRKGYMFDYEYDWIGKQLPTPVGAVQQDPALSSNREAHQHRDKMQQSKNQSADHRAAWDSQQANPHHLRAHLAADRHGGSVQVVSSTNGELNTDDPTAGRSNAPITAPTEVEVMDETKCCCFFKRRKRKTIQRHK
# T10 sequence (P08581 25-1390): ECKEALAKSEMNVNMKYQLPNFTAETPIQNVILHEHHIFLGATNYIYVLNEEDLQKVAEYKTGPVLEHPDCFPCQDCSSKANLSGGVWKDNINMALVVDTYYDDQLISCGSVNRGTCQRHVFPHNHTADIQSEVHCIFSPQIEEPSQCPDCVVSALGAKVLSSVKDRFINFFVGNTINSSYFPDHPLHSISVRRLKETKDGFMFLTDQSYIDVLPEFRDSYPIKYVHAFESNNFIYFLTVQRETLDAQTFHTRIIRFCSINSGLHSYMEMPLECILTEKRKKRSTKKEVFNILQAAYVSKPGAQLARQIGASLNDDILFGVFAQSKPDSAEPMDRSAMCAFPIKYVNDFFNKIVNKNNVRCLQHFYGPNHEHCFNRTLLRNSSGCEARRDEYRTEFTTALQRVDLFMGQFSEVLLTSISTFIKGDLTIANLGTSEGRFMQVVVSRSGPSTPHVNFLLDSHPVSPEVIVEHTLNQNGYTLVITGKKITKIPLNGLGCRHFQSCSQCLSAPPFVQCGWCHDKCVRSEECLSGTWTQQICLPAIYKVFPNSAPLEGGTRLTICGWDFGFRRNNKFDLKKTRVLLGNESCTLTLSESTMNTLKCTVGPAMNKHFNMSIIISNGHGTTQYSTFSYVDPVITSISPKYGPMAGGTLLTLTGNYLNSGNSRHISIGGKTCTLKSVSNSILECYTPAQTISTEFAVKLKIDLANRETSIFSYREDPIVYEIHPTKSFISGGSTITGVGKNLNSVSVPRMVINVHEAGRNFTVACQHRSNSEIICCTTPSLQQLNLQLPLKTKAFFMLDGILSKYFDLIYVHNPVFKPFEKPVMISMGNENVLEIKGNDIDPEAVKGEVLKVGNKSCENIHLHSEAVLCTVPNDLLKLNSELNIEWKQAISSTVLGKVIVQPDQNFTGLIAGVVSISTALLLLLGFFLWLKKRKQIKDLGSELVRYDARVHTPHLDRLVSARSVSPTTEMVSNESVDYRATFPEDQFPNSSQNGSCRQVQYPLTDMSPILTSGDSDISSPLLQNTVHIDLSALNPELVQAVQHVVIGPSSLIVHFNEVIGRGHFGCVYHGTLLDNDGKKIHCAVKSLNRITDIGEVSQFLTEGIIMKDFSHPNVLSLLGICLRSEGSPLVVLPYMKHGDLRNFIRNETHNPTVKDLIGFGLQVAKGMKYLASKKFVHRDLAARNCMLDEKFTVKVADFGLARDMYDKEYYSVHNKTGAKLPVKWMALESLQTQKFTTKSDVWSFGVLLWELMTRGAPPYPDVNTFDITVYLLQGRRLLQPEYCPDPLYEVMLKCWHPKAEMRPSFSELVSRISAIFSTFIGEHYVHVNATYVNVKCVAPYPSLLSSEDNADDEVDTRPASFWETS
# T7 sequence (P29323 19-1055): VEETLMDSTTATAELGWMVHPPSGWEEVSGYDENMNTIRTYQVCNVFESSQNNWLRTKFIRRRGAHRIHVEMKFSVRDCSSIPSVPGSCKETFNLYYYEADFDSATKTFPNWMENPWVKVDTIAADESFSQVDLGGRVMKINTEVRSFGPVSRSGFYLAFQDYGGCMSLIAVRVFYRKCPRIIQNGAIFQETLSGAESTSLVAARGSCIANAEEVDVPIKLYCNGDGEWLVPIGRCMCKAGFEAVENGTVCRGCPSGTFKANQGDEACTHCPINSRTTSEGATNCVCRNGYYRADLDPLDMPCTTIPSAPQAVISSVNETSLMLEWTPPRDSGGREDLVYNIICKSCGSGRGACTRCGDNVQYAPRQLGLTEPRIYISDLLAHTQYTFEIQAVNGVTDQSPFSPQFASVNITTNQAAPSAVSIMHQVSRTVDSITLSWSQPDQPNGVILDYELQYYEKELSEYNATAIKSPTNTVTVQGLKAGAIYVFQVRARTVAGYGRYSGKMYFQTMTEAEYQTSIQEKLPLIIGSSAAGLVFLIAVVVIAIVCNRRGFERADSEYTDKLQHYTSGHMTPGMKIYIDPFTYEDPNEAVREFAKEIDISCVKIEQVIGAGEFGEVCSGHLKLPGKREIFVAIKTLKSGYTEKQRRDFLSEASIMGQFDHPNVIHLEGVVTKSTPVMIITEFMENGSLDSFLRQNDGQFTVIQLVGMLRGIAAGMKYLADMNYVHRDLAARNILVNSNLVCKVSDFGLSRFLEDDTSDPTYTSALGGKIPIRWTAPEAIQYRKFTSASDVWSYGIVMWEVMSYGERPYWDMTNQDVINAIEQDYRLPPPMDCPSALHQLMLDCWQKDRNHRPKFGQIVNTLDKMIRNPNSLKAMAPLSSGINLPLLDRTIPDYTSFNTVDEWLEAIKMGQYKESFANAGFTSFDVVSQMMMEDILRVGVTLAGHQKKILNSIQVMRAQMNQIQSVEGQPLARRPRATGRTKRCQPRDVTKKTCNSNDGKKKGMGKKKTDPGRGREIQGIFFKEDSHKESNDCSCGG
# T8 sequence (P23458 whole entry, the tested form may be a part): as the sequence (P23458 whole entry, the tested form may be a part) above
Structure (SMILES),"KiNativ Kinase Panel Data (NDR1, NDR2)","KiNativ Kinase Panel Data (p38a; Lys2, DLKPSNLAVNEDCELK)","KiNativ Kinase Panel Data (p38a; Other, QELNKTIWEVPER)",KiNativ Kinase Panel Data (JAK1_Domain2 domain2; [4]),KiNativ Kinase Panel Data (JAK1_Domain2 domain2; [5]),KiNativ Kinase Panel Data (PKR; [6]),"KiNativ Kinase Panel Data (PKR; Lys1, TYVIKR)","KiNativ Kinase Panel Data (PKR; Lys2, DLKPSNIFLVDTK)",KiNativ Kinase Panel Data (ULK1),KiNativ Kinase Panel Data (MAP2K7),effect on tumor p4EBP1 levels (tumor p4EBP1),MCF-7 tumor PD: dose proportional duration of >80% p4EBP1 inhibition (tumor p4EBP1) [h],"KiNativ Kinase Panel Data (Wnk1, Wnk2)",KiNativ Kinase Panel Data (EphB2),"KiNativ Kinase Panel Data (IKKe, TBK1)",KiNativ Kinase Panel Data (JAK1 domain1),KiNativ Kinase Panel Data (MLK3),KiNativ Kinase Panel Data (MET),further results
CO[C@H]1C[C@@H]2CC[C@@H](C)[C@@](O)(O2)C(=O)C(=O)N2CCCC[C@H]2C(=O)O[C@H]([C@H](C)C[C@@H]2CC[C@@H](OC(=O)NCCOCCOCCOCCOCCOCCOCCOCCOCCC(=O)NCCS(=O)(=O)c3ccc(C(=O)N4CCOc5ccc(-c6ccc(N)nc6)cc5C4)c(C)c3F)[C@H](OC)C2)C[C@@H](O)[C@H](C)/C=C(\C)[C@@H](O)[C@@H](OC)C(=O)[C@H](C)C[C@H](C)/C=C/C=C/C=C/1C [compound 40],-18.5,-6.8,-1.6,19.5,13.3,17.4,9.6,-32.5,-15.4,-14.8,"dose-dependent, robust, and long-lasting inhibition",24 to 48,-3.7,1.3,-21.1,-1.7,-12.3,6.3,"KiNativ Kinase Panel Data ([1]; DIKGQNVLLTENAEVK): -13.4; KiNativ Kinase Panel Data ([2]; VLGTGAYGKVFLVR): 16.0; KiNativ Kinase Panel Data (MST3, MST4, YSK1; LADFGVAGQLTDTQIKR): 20.4; KiNativ Kinase Panel Data (PKCa, PKCg; NLIPMDPNGLSDPYVKLK): 31.7; KiNativ Kinase Panel Data (TAO1, TAO3; DIKAGNILLTEPGQVK): -29.7; KiNativ Kinase Panel Data (CK1g3; DVKPENFLIGRPGNK): -6.6; Tmax [3]: 2.3 ± 1.5 h; t1/2 [3]: 3.8 ± 0.6 h; AUClast ([3]; 1 mg/kg): 8.7 ± 1.2 µM·h; KiNativ Kinase Panel Data (p38d, p38g; DLKPGNLAVNEDCELK): -28.8; KiNativ Kinase Panel Data (FYN, SRC, YES; QGAKFPIKWTAPEAALYGR): -28.5; KiNativ Kinase Panel Data (ABL, ARG; Activation Loop, LMTGDTYTAHAGAKFPIK): 16.3; KiNativ Kinase Panel Data (ABL, ARG; Lys1, YSLTVAVKTLKEDTMEVEEFLK): -25.3; KiNativ Kinase Panel Data (NEK6, NEK7; DIKPANVFITATGVVK): -12.6; KiNativ Kinase Panel Data (CDK11, CDK8; DLKPANILVMGEGPER): -19.1; KiNativ Kinase Panel Data (KSR1, KSR2; SKNVFYDNGK): -20.7"
CO[C@H]1C[C@@H]2CC[C@@H](C)[C@@](O)(O2)C(=O)C(=O)N2CCCC[C@H]2C(=O)O[C@H]([C@H](C)C[C@@H]2CC[C@@H](OC(=O)NCCOCCOCCOCCOCCOCCOCCOCCOCCC(=O)N3CCc4cc(Cn5nc(-c6ccc7oc(N)nc7c6)c6c(N)ncnc65)ccc4C3)[C@H](OC)C2)C[C@@H](O)[C@H](C)/C=C(\C)[C@@H](O)[C@@H](OC)C(=O)[C@H](C)C[C@H](C)/C=C/C=C/C=C/1C [compound 38],25.0,-4.3,-5.2,31.3,26.2,12.1,15.2,11.0,-11.7,20.9,"dose-dependent, prolonged, and profound inhibition",24 to 48,13.6,26.5,-33.9,0.8,2.0,3.9,"KiNativ Kinase Panel Data ([1]; […]): 8.5; KiNativ Kinase Panel Data ([2]; […]): 33.6; KiNativ Kinase Panel Data (MST3, MST4, YSK1; […]): 12.4; KiNativ Kinase Panel Data (PKCa, PKCg; […]): -20.9; KiNativ Kinase Panel Data (TAO1, TAO3; […]): -1.7; KiNativ Kinase Panel Data (CK1g3; […]): 13.2; AUC(0-t) ([3]; mouse, in vivo): 25.9 ± 3 µM·h; Cmax ([3]; mouse, in vivo): 5670 ng/mL and 3.19 µM; half-life ([3]; mouse, in vivo): 288 ± 24 min; Tmax ([3]; mouse, in vivo, read-out: Tmax): 2 h; KiNativ Kinase Panel Data (p38d, p38g; […]): -3.7; KiNativ Kinase Panel Data (FYN, SRC, YES; […]): -6.3; KiNativ Kinase Panel Data (ABL, ARG; Activation Loop, […]): -3.4; KiNativ Kinase Panel Data (ABL, ARG; Lys1, […]): -1.3; KiNativ Kinase Panel Data (NEK6, NEK7; […]): 11.1; KiNativ Kinase Panel Data (CDK11, CDK8; […]): -39.0; KiNativ Kinase Panel Data (KSR1, KSR2; […]): -19.2"

# — article PMC9841523 (Journal of Medicinal Chemistry, 2022)
